Calls of active or inactive are those of the source.
Tests used:
Caspase-7 = Caspase-7 (Homo sapiens, UniProt P55210); assay: caspase-7 enzyme inhibition, selectivity check – biochemical, DEVD-R110 fluorescence, cherry-pick, selectivity assay for caspase-6 inhibitor project, dose response (AID 743295); format: functional
MEF = assay: SAR analysis of small molecule cytotoxicity of MazEF TA System activators in embryonic fibroblast (MEF) cells. [Related pubchem assays (depositor defined):AID504720, AID504743]; format: functional; conditions: Mus musculus
[1] = target: T1, Endoribonuclease toxin MazF (Escherichia coli K-12, UniProt P0AE70); assay: SAR analysis of small molecule activators of the MazEF TA System via a fluorescence-based single-stranded RNase assay counterscreen. [Related pubchem assays (depositor defined):AID504720, AID504743]; format: functional
T1 sequence (P0AE70 whole entry): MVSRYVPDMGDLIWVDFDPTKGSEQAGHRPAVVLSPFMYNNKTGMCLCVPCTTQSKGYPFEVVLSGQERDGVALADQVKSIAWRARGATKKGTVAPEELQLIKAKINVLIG

[2] = viability loss in THP-1 monocytes – THP-1 cells, cytotoxicity control for Vif-APOBEC3G degradation inhibitor project, dose response (AID 1117359); format: functional; conditions: THP-1
INS1 = assay: INS-1E survival protection against cytokine death – cell-based, luminescence, retest, dose response (AID 449756); format: functional; conditions: Rattus norvegicus;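 also: cell death triggered by IL-1 beta plus TNF-alpha plus IFN-gamma mixture; protective hits raise ATP signal compared with cytokine alone wells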
[3] = target: Mothers against decapentaplegic homolog 3 (Homo sapiens, UniProt P84022); assay: inhibitors of SMAD-driven TGF-beta signaling – dose response (AID 715); format: functional
[4] = target: Ras and Rab interactor 1/Tyrosine-protein kinase ABL1 (Homo sapiens, UniProt P00519+Q13671); format: functional;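 also: biochemical TR-FRET dose-response test measuring inhibition of binding between Rin1 and Abl proteins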
[5] = Intein inhibitors as potential Tuberculosis drugs, a cytotoxicity screen. [Related pubchem assays (depositor defined):AID2221, AID2223, AID434968, AID435010, AID449749, AID449750, AID489010]; format: functional
[6] = viability of HCT116 lacking mutant beta-catenin – cell-based, human colon tumor, dose response (AID 1045); format: functional;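 also: HCT116 colon tumor cells with beta catenin knocked out; cells exposed to compound for 60 hours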
Cysteine protease ATG4B = target: T2, Cysteine protease ATG4B (Homo sapiens, UniProt Q9Y4P1); format: functional;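 also: Fluorescence-based dose-response confirmation assay measuring inhibition of ATG4B activity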
T2 sequence (Q9Y4P1 whole entry): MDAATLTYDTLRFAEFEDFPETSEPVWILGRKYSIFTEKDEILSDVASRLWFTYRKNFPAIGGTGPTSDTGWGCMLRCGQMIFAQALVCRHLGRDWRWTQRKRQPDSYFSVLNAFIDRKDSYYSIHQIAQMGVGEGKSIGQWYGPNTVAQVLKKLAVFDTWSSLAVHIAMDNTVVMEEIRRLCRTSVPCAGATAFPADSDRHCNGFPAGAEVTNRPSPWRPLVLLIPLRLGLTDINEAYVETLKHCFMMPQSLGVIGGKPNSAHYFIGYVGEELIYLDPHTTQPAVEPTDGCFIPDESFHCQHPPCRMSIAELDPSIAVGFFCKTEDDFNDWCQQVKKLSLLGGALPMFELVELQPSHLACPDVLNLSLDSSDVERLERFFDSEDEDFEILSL

BJ [7] = assay: BJ-TERT fibroblast viability loss – cell-based, RAS-independent, luminescence, dose response (AID 1933); format: functional; conditions: Homo sapiens
[8] = target: T3, Tyrosine-protein phosphatase non-receptor type 22 (Homo sapiens, UniProt Q9Y2R2); format: functional;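 also: confirmatory dose-response retesting of primary uHTS hits against LYP; potency is for inhibition of phosphatase activity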
T3 sequence (Q9Y2R2 whole entry): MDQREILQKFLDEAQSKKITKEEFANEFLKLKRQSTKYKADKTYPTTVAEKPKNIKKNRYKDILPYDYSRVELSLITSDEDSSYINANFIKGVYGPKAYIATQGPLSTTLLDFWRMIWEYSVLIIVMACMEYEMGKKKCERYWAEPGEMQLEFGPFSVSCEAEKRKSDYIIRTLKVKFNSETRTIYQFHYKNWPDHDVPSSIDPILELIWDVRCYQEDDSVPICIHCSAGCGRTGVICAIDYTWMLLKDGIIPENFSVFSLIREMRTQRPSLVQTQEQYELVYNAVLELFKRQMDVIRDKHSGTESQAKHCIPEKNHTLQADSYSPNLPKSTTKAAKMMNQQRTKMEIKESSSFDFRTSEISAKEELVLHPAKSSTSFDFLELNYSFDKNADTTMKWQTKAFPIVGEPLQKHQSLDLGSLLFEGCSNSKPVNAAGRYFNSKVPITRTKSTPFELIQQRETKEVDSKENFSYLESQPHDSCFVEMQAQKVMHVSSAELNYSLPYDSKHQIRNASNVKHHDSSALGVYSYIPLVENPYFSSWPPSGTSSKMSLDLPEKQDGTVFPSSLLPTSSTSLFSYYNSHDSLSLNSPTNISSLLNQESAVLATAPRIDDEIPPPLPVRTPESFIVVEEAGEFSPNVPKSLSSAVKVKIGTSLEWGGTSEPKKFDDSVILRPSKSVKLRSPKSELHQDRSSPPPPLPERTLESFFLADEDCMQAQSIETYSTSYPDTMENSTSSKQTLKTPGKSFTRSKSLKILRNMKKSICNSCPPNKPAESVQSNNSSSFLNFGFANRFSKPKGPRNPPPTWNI

BJ [9] = assay: cells; format: functional, cell-based; conditions: Homo sapiens
[10] = target: Transitional endoplasmic reticulum ATPase (Homo sapiens, UniProt P55072); assay: p97 ATPase inhibitors, dose response, biochemical (AID 1534)
[11] = THP-1 cell cytotoxicity, dose response, cytotoxicity control for non-replicating M. tuberculosis project (AID 489025); format: functional

Mothers against decapentaplegic homolog 3, sequence (P84022 whole entry): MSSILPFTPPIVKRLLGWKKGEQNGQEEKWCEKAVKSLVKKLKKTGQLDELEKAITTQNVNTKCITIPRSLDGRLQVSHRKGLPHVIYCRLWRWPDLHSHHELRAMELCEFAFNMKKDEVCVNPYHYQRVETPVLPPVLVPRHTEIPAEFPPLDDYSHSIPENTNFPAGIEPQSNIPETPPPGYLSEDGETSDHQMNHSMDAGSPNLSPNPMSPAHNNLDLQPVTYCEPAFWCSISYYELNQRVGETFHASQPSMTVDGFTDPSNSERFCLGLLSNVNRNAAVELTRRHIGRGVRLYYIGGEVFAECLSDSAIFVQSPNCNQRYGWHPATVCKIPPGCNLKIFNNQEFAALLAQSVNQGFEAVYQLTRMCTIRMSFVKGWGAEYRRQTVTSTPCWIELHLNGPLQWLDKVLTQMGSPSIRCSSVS
Ras and Rab interactor 1/Tyrosine-protein kinase ABL1, sequence (P00519 whole entry): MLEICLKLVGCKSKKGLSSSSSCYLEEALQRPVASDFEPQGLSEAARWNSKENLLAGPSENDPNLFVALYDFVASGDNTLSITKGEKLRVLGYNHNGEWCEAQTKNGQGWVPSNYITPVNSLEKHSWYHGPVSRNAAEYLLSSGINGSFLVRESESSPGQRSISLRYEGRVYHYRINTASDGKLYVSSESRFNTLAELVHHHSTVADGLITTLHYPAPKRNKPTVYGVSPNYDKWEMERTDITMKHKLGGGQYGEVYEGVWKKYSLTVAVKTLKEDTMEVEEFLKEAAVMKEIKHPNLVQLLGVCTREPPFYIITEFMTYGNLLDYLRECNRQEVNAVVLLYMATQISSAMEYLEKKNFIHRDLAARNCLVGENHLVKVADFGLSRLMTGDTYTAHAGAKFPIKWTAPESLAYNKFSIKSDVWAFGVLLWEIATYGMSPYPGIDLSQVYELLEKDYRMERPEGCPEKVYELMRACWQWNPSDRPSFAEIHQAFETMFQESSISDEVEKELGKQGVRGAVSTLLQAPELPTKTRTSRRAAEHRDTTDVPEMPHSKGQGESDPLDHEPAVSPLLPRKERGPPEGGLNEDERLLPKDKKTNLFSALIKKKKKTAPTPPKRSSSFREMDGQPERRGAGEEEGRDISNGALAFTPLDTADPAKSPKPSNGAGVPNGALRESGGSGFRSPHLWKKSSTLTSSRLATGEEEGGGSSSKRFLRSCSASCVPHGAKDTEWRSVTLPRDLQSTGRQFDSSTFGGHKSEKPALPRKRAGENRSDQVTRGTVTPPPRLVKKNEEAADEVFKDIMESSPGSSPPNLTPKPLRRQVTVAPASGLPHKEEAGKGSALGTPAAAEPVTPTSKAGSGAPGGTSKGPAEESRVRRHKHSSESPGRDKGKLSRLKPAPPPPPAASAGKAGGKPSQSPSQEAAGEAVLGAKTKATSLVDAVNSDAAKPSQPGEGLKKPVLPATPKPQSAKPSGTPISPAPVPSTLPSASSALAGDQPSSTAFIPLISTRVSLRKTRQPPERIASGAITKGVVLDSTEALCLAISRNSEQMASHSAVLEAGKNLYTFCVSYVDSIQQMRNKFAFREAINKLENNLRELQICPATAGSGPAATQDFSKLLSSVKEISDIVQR
Ras and Rab interactor 1/Tyrosine-protein kinase ABL1, sequence (Q13671 whole entry): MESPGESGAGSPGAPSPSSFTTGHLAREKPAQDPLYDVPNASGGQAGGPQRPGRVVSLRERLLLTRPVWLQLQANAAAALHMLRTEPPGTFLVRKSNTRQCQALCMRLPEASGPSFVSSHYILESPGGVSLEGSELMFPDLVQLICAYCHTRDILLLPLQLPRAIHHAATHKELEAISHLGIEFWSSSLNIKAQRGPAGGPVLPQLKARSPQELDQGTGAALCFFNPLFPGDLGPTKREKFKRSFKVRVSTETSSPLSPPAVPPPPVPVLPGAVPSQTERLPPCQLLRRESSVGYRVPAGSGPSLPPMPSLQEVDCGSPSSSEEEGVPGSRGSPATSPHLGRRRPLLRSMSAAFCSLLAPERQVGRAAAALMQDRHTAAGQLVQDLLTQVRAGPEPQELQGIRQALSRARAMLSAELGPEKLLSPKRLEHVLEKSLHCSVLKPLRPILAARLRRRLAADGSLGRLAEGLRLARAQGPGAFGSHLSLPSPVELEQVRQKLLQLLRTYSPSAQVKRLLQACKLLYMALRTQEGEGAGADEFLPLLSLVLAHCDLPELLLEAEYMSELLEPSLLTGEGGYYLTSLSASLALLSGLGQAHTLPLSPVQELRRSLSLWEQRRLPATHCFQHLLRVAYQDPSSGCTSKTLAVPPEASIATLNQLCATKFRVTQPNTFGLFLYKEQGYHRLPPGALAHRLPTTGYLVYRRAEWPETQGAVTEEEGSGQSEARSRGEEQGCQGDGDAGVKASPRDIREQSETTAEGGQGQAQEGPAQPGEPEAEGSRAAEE
Transitional endoplasmic reticulum ATPase, sequence (P55072 whole entry): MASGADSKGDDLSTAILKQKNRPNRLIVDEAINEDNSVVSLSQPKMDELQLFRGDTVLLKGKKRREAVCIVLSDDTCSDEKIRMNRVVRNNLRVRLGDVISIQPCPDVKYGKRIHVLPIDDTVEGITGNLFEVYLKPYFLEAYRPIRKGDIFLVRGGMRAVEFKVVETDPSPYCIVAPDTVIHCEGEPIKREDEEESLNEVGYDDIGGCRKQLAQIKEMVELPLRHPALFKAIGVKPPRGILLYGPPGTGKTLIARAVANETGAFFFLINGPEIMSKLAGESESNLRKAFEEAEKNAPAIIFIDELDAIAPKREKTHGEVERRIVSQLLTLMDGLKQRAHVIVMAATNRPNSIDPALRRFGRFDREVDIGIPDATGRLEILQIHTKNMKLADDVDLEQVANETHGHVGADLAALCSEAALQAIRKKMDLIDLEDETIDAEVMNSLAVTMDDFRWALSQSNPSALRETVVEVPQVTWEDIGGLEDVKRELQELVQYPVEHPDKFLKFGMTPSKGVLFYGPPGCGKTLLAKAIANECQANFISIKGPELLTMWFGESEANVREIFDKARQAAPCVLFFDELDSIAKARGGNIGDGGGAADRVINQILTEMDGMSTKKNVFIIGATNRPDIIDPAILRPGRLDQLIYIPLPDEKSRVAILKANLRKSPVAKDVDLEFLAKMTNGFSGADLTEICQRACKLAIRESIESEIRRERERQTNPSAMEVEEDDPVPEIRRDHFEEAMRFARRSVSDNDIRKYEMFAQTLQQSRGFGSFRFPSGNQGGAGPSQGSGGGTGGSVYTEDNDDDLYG
Caspase-7, sequence (P55210 24-198 limits assumed): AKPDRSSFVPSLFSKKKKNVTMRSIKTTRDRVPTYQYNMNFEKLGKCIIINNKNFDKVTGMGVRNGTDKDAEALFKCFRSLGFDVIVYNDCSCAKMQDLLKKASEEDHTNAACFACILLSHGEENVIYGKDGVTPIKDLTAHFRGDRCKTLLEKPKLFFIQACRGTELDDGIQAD
Caspase-7, sequence (P55210 207-303 limits assumed): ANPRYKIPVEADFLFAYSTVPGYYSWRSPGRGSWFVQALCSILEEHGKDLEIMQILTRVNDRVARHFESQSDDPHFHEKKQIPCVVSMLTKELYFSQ

Oc1nc(Nc2ccccc2Cl)cc2ccccc12
active: AC50 (Caspase-7) 12.2 µM

O=C1C=C(c2c(O)ccc3ccccc23)c2ccccc2C1=O
inactive: EC50 [1] > 99 µM
active: CC50 (MEF) 3.84 µM | CC50 [2] 7.1 µM

Cc1nc2c(=O)n(C)c(=O)nc-2n(C)n1
active: AC50 (INS1) 0.695 µM | IC50 [3] 0.038 µM | IC50 [4] 0.302 µM | CC50 [5] 7.94 µM | EC50 [6] 0.781 µM | IC50 (Cysteine protease ATG4B) 3.73 µM | EC50 (BJ [7]) 4.56 µM | IC50 [8] < 1.24 µM | EC50 (BJ [9]) 5.69 µM | CC50 [11] 2.73 µM
> 50 µM (not active): IC50 [10]

— ChEMBL document CHEMBL1201862, “PubChem BioAssay data set” (2004)
